The subject of one series is RAW 264.7 macrophages. Kind of series: Cytokines in supernatants of LPS-stimulated macrophages. The format is cell-based, mouse. The settings on record: 10 ng/ml E. coli LPS. The protocol: RAW 264.7 macrophages were stimulated with 10 ng/ml E. coli LPS in combination with indicated concentrations of the two peptides. (B) Similar as above, but using P. aeruginosa LPS(C) KYE28 reduced TNF-αproduction, MCP-1 and IL-10 production in macrophages. RAW 264. 7 cells were stimulated with 10 ng/ml E. coli LPS and cytokines were analysed in the cell supernatants
The cytokines IL-6, IL-10, MCP-1, INF-γ, and TNF-α were measured in cell culture supernatants from RAW264.7 cells and plasma from mice injected with LPS or P. aeruginosa (with or without peptide treatment) using the Cytometric bead array; Mouse Inflammation Kit (Becton Dickinson AB) according to the manufacturer's instructions. All plasma samples were stored at −20° C. before the analysis.

In a further series the test system is P. aeruginosa 15159. Kind of series: P. aeruginosa infection model (sepsis). The format is in vivo, mice. The protocol: Mice were inoculated with P. aeruginosa and KYE28 (0.5 mg) was administrated sc 1 h after infection. (A) Bacterial counts in the indicated organs were analyzed after a time period of 4, 8, and 12 h. (B) In parallel, the indicated cytokines were analyzed in blood.
(A) Bacterial counts in the indicated organs were analyzed after a time period of 12 h. (B) Effects on platelets, lymphocytes, monocytes and neutrohils are shown. (C) In parallel, the indicated cytokines were analyzed in blood. […]
(A) P. aeruginosa 15159 bacteria (in PBS, ˜2×10^4 or 2×10^8 cfu/ml) were kept on ice until injection. Hundred microliter of the bacterial suspension were injected intraperitoneally (ip) into C57/Bl6 mice. At ˜10 min after the bacterial injection, 0.5 mg of NLF20 or PBS alone was injected ip into the mice. Liver, spleen and kidney were harvested, placed on ice, homogenized, and colony-forming units (cfu) determined 12 h after infection. (B) In a similar infection model (2×10^8 cfu/ml of P. aeruginosa) intraperitoneal (ip) administration after 30 min was compared with subcutaneous injection (sc) after 1 h. 0.5 mg of NLF20 was used. […] Mice were injected intraperitoneally with P. aeruginosa as above followed by ip or sc administration of NLF20 (500 μg). Survival was followed for 7 days. […] (D) NLF20 effects on TNF-α and IL-10 were analyzed in blood. (E) Thrombocytes were analyzed in blood. Treatment with NLF20 (ip and sc) increased thrombocyte levels.
Animals were Housed Under Standard Conditions of Light and Temperature and Had free access to standard laboratory chow and water. P. aeruginosa 15159 bacteria were grown to logarithmic phase (OD620˜0.5), harvested, washed in PBS, diluted in the same buffer to 2×10^8 cfu/ml, and kept on ice until injection. Hundred microliter of the bacterial suspension was injected intraperitoneally (i.p.) into female bI6 mice. […] In order to study bacterial dissemination to target organs spleen, liver and kidney were harvested, placed on ice, homogenized, and colony-forming units determined. The P-value was determined using the Mann-Whitney U-test. Data from three independent experiments were pooled.
Animals were housed under standard conditions of light and temperature AND had free access to standard laboratory chow and water. P. aeruginosa 15159 bacteria were grown to logarithmic phase (OD620˜0.5), harvested, washed in PBS, diluted in the same buffer to 2×10^8 cfu/ml, and kept on ice until injection. Hundred microliter of the bacterial suspension was injected intraperitoneally (i.p.) into female bI6 mice. Immediately subsequent the bacterial injection, 0.5 mg NLF20 (in 10 mM Tris, pH 7.4) or buffer alone was injected i.p. into the mice. In order to study bacterial dissemination to target organs spleen, liver and kidney were harvested, placed on ice, homogenized, and colony-forming units determined. The P-value was determined using the Mann-Whitney U-test. Data from three independent experiments were pooled.

For a further series, the system named is P. aeruginosa. Kind of series: Electron microscopy of peptide-treated bacteria. The format is cell-based. The settings on record: 30 μM, 2 h, 37° C. As to the method:
(A) Permeabilizing effects of peptides on E. coli. Bacteria were incubated with the NLF20 and permeabilization was assessed using the impermeant probe FITC. (B) Electron microscopy analysis. P. aeruginosa and S. aureus bacteria were incubated for 2 h at 37° C. with 30 μM of NLF20 and visualized by negative staining. LL-37 is shown for comparison. Scale bar represents 1 μm. Control; Buffer control.

Series [1] concerns P. aeruginosa, E. coli, S. pyogenes, S. aureus, C. albicans. Kind of series: Antibacterial effects in human blood infected by bacteria. The format is cell-based. The settings on record: 50% citrate blood. The protocol:
(§1) (A) Antibacterial effects of NLF20 in presence of the indicated bacteria in human blood (made 50% in PBS) are presented. The indicated microbes (2×10^8 cfu/ml) were added to 50% citrate blood, followed by addition of peptide at 30, 60 or 120 μM. The number of cfu was determined after an incubation period of 1 h. (B) In an identical setup, hemolysis effects were studied. The bacteria were added to 50% citrate blood, followed by addition of peptide. Hemolysis was assessed after 1 hour.
E. coli ATCC 25922, P. aeruginosa 15159, or S. aureus ATCC 29213 bacteria were grown to mid-logarithmic phase in Todd-Hewitt (TH) medium (Becton and Dickinson, Maryland, USA). The microorganisms were then washed and diluted in 10 mM Tris, pH 7.4 containing 5 mM glucose. Following this, bacteria (50 μl; 2×10^6 cfu/ml) were incubated, at 37° C. for 2 hours, with NLF20 or LL-37 (at 0.03, 0.06, 0.3, 0.6, 3, 6, 30, 60 μM) in 10 mM Tris, 0.15 M NaCl, with or without 20% human citrate-plasma. […] To quantify the bactericidal activity, serial dilutions of the incubation mixtures were plated on TH agar, followed by incubation at 37° C. overnight and the number of colony-forming units was determined. […] Significance was determined using the statistical software SigmaStat (SPSS Inc., Chicago, Ill., USA).

For the next series, the system named is human blood. Kind of series: Hemolysis in human blood infected by bacteria. The settings on record: peptide dose of 120 μM. The format is cell-based. As to the method:
as §1
In the experiments with blood infected by bacteria, citrate-blood was diluted (1:1) with PBS.

Where [2] appears, read: 0.5 mg sc 1 h after infection, particularly after 12 h.
Where [3] appears, read: sc 1 h, or 1 and 7 h after inoculation.

Entries after “also recorded” stand apart in the source; their conditions may differ. No end group written: not given here.

Consider KYEITTIHNLFRKLTHRLFRRNFGYTLR [KYE28], for which, in the series with RAW 264.7 macrophages, the IL-10 production result is listed as “reduced”, the MCP-1 production entry is “reduced” and the TNF-α production result is “reduced”. In addition, the “Bacterial levels in spleen, kidney and liver” value with P. aeruginosa 15159 (0.5 mg sc 1 h after infection, 4, 8 and 12 h) is on record as “did not significantly reduce bacterial levels”. The IL-10 in blood entry in the series with P. aeruginosa 15159 (0.5 mg sc 1 h after infection, after 12 h) was “not significantly modulated”. In the series with P. aeruginosa 15159 (setting [2]), the IFN-γ in blood result was “concomitant reduction of cytokine levels”, the IL-6 in blood result is reported as “concomitant reduction of cytokine levels”, the MCP-1 in blood entry is on record as “concomitant reduction of cytokine levels” and the TNF-α in blood result is listed as “concomitant reduction of cytokine levels”. Also, in the series with P. aeruginosa 15159 (one dose, sc 1 h after inoculation), the Survival entry is reported as “did not increase survival”. The “Bacterial cfu in organs” value with P. aeruginosa 15159 (one dose, sc 1 h after inoculation, 12 h) is “did not significantly reduce bacterial cfu”. Besides, the “Bacterial cfu in organs” value in the series on P. aeruginosa 15159 (repeated treatment, sc 1 and 7 h after inoculation, 12 h) was “moderate reduction of cfu numbers”. In the series with P. aeruginosa 15159 (setting [3]), the Cytokines in blood result is “dramatic and highly significant reduction of cytokines in blood”; the Platelets result is given as “slight, but significant increase in platelets”. The Survival / mortality result in the series on P. aeruginosa 15159 (two-dose regime, sc 1 and 7 h after infection) was “significantly reduced mortality; also recorded: significant delay of septic symptoms as well as delayed mortality, and eventually also increase in survival”.

As to NLFRKLTHRLFRRNFGYTLR [NLF20], the “Membrane damage by electron microscopy” value with P. aeruginosa is on record as “extensive membrane damage”. Besides, the “Antibacterial effect in infected human blood” value in series [1] (P. aeruginosa, E. coli, S. pyogenes, peptide dose 120 μM, 1 h) was “almost complete eradication of P. aeruginosa, E. coli, as well as S. pyogenes”. The “Antibacterial/antifungal effect in infected human blood” value in series [1] (S. aureus and C. albicans) is recorded as “not active”. Further, the “Accompanying hemolysis in infected human blood” value in the series on human blood was at most 2%. The “Bacterial cfu in organs” value with P. aeruginosa 15159 (0.5 mg given subcutaneously 1 h after infection) is “reductions in cfu”. For the same sequence, the “Bacterial numbers in spleen, liver and kidney” value in the series on P. aeruginosa 15159 (0.5 mg ip shortly after bacterial injection, 12 h) was “significantly lower bacterial numbers in the spleen, liver, and kidney”. Also, in the series with P. aeruginosa 15159 (ip and sc), the Thrombocytes in blood result is given as “thrombocytes were increased”. Besides, the IL-10 in blood result with P. aeruginosa 15159 (ip and sc administration) is listed as “showing an increase (both administrations)”. In the series on P. aeruginosa 15159 (ip treatment), the TNF-α in blood result is reported as “a reduction was noted after ip treatment”. Further, the Mortality result in the series on P. aeruginosa 15159 (one dose (500 μg) ip, followed 7 days) is on record as “significantly reduce mortality”. The Survival entry in the series with P. aeruginosa 15159 (one dose (500 μg) sc, followed 7 days) is “prolong survival”; in the series on P. aeruginosa 15159 (subcutaneous injection after 1 h and then every 24 h for the three following days (FIG. 21)), “significantly increases survival”.

These data come from patent US9169315B2, “Heparin cofactor II fragments with anti-inflammatory and anti-coagulant activity” (XIMMUNE AB, priority 2009, dated 2015).
